Measurements published in US20110105389A1 (priority 2009, published 2011).
Read-outs that look alike come from different tables or passages of the source.

What was measured:
[1] = molecular target: T1, ghrelin receptor (HEK-GHSR1 stable cells) (Homo sapiens, UniProt Q92847); experiment: Ghrelin receptor inverse agonist assay (HTRF IP-one), Method B4; format: cell-based; conditions: inverse agonist at the ghrelin receptor, Method B4
T1 construct: expressed in transfected cells
Description: B4. Ghrelin Receptor Inverse Agonist Assay […]
In addition, the following method can be utilized to assay for inverse agonist activity. (Thomsen, W.; et al. Curr. Opin. Biotechnol. 2005, 16, 655-665; Tozawa-Takahashi F; et al., 11th SBS Annual Conference. September 2005, Geneva; Trinquet, E.; Fink, M.; Bazin, H.; et al. Anal. Biochem. 2006, 358, 126-135; Bergsdorf, C.; Kropp-Goerkis, C.; Kaehler, I.; Ketscher, L.; Boerner, U.; Parczyk, K.; Bader, B. Assay Drug Dev. Technol. 2008, 6, 39-53.)
• 1. Remove culture medium from the plate by inversion. • 2. Add 70 μl of compound/well. • 3. Incubate 30 min at 37° C. • 4. Stop the reaction by adding 15 μl of lysis buffer/well. • 5. Add 15 μl of d2/well. • 6. Add 15 μl of Anti-IP1 cryptate/well. • 7. Incubate 1 h at room temp on an orbital shaker at 100 RPM. • 8. Read the fluorescence in a plate reader (Tecan GeniosPro or similar)
The above sequence was performed using the HTRF IP-one kit (CisBio cat#62P1APEC). For the simultaneous assay of multiple test compounds, 96-well plates can be utilized in this assay (white plate with flat-bottom well, Falcon #353296). These were seeded overnight with 100 000 of HEK-GHSR1 stable cells/well. • Wells A1 and A2 of each plate are used as negative control (wells without d2). Compounds are typically tested in replicate at the following concentrations:
Compounds are stored at 10 mM in 100% DMSO.
1st dilution 1/10 in 100% DMSO (1 mM final concentration).
2nd dilution 1/10 in H2O (0.1 mM final concentration).
Other dilutions are performed in a 96-well plate in stimulation buffer.
The results for representative compounds of the invention are provided in the Examples.

[2] = molecular target: T2, human ghrelin receptor (GRLN, growth hormone secretagogue receptor, hGHS-R1a) (Homo sapiens, UniProt Q92847); experiment: Competitive radioligand binding assay (ghrelin receptor), Method B1
T2 construct: purchased PerkinElmer BioSignal #RBHGHSM, lot#1887; host or cells: HEK-293 cells, stably transfected (membranes)
T2 sequence (Q92847 whole entry): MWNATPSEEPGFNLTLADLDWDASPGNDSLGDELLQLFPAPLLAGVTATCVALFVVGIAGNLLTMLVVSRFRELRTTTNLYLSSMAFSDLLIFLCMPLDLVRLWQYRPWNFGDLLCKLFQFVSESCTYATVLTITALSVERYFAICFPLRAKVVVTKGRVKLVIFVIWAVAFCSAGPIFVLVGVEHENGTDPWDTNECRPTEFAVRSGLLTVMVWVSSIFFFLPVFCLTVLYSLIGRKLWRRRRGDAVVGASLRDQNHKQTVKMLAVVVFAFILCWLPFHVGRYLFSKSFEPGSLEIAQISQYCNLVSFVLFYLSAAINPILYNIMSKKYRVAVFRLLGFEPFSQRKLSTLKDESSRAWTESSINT
Method: Multiscreen Harvest plates-GF/C (Millipore, #MAHFC1H60) • 4. […] Bottom seal (Millipore, #MATAH0P00) • 7. […] Binding Buffer: 25 mM Hepes (pH 7.4), 1 mM CaCl2, 5 mM MgCl2. 2.5 mM EDTA, 0.4% BSA
Competition experiments were performed in a 300 μl filtration assay format. • 1. 220 μL of membranes diluted in binding buffer • 2. 40 μL of compound diluted in binding buffer • 3.
Compounds were provided frozen on dry ice at a stock concentration of 10 mM diluted in 100% DMSO and stored at −80° C. until the day of testing. On the test day, compounds were allowed to thaw at rt overnight and then diluted in assay buffer according to the desired test concentrations. Under these conditions, the maximal final DMSO concentration in the assay was 0.1%.
Plates were sealed with TopSeal-A, vortexed gently and incubated at rt for 30 min. The reaction was arrested by filtering samples through Multiscreen Harvest plates (pre-soaked in 0.5% polyethyleneimine) using a Tomtec Harvester, washed 9 times with 500 μL of cold 50 mM Tris-HCl (pH 7.4, 4° C.), and then plates were air-dried in a fumehood for 30 min. A bottom seal was applied to the plates prior to the addition of 25 μL of MicroScint-0 to each well. Plates were than sealed with TopSeal-A and counted for 30 sec per well on a TopCount Microplate Scintillation and Luminescence Counter (PerkinElmer) using a count delay of 60 sec. Results were expressed as counts per minute (cpm).
Data were analyzed by GraphPad Prism (GraphPad Software, San Diego, Calif.) using a variable slope non-linear regression analysis. […] Dmax values were calculated using the following formula: […]

[3] = molecular target: T3, GHS-R1a receptor (HEK293 cells expressing GHS-R1a receptor) (Homo sapiens, UniProt Q92847); experiment: Fluorescence functional assay (ghrelin receptor), Method B2, agonist and antagonist mode; format: cell-based; conditions: functional activity as an antagonist at the ghrelin receptor, Methods B2 and B3
T3 construct: host or cells: HEK293
T3 sequence (Q92847 whole entry): as above
Method: • 1. ImageTrak Epi-Fluorescence system (Perkin-Elmer) • 2. MultiDrop TiterTek • 3. CO2 incubators: 5% CO2, humidified, 37° C.
• 1. Hanks' BSS without phenol red (Life Technologies) • 2. Hepes buffer • 3. Probenecid (Sigma) • 4. […] Falcon cell culture 96-well black/clear bottom plates • 6. 0.05% trypsin-EDTA • 7. Cells: HEK293 cells expressing GHS-R1a receptor (Perkin-Elmer BioSignal) were grown in DMEM (Dulbecco's Modified Eagles Medium) with 10% FBS, 1% sodium pyruvate, 1% NEAA and 400 μg/mL geneticin • 8. […] [D-Lys^3]-GHRP-6 (reference antagonist, Phoenix #031-22) • 10. Assay buffer: HBSS-20 mM Hepes containing 2.5 mM probenecid and 0.1% BSA (bovine serum albumin); pH 7.4
Stock solutions of compounds (10 mM in 100% DMSO) were provided frozen on dry ice and stored at −80° C. prior to use. […] Assay plates were then prepared by appropriate dilution in assay buffer.
Typical Final Test Concentrations (N=10) for Test Compounds (agonist):
Typical Final Test Concentrations (N=10) for Test Compounds (antagonist):
Cells were maintained in culture as indicated above. The cells were harvested at a confluency of 70-90% the day before the experiment. Growth medium was removed and the cells rinsed briefly with PBS without Ca^+2 and Mg^+2. 0.05% Trypsin was added and the plates incubated at 37° C. for 5 min to detach the cells. DMEM medium supplemented with 10% FBS was added to inactivate the trypsin and determine the cell concentration. The inoculum was adjusted to a final concentration of 200 cells/μL and dispensed at 200 μL per well into a 96-well block plate. The plates were, incubated at 37° C. overnight.
The plates were removed from the incubator and the media removed by inversion of the plates. Calcium-3 dye, 50 μL, was loaded and then incubated for 1 h at 37° C. The plate was again inverted and then 25 μL of assay buffer added. The plates were then transferred to the ImageTrak system for analysis. For agonist testing, after reading for ten (10) sec, 25 μL of 2× test compound or control was injected into the assay plate. Fluorescence was monitored for an additional 50 sec. A reading was taken every two (2) seconds for a total of 30 readings per assay point.
For antagonist testing, after reading for ten (10) sec, 12.5 μL of 3× test compound or control was injected into the assay plate and allowed to react for three (3) min.
Concentration response curves were analyzed using GraphPad Prism (GraphPad Software, San Diego, Calif.) by non-linear regression analysis (sigmoidal dose-response). EC50 values are calculated using GraphPad.
Emax values were calculated using the following formula: […]
Concentration response curves were analyzed using GraphPad Prism (GraphPad Software, San Diego, Calif.) by non-linear regression analysis (sigmoidal dose-response). IC50 values are calculated using GraphPad.
Imax values were calculated using the following formula: […]

[4] = Ghrelin receptor binding activity, Method B1

T1 sequence (Q92847 whole entry): as above

Compound	IC50 [1] [nM]	IC50 [2, 4] [nM]	Ki [2, 4] [nM]	Antagonist Activity [3]	Ki [2] [nM]
CCC(C)C1NCCOc2ccccc2CC(C)CNC(=O)C(Cc2ccccc2)NC(=O)C(C(C)O)N(C)C1=O (mixture of isomers) [Compound 1338]	100 to 500	10 to 100	10 to 100		
CCC(C)[C@@H]1NCCOc2ccccc2CC[C@H](C)NC(=O)[C@@H](Cc2ccccc2)NC(=O)[C@H](C(C)O)N(C)C1=O (stereo partly shown) [Compound 1302]		10 to 100	1 to 10	C (C = 10-100 nM)	
CC(O)[C@H]1C(=O)N[C@H](Cc2ccccc2)C(=O)NC/C=C/c2ccccc2OCCN[C@@H](C2CCCCC2)C(=O)N1C (stereo partly shown) [Compound 1304]			10 to 100	C (C = 10-100 nM)	
CCC(C)[C@@H]1NCCOc2ccccc2/C=C/[C@H](C)NC(=O)[C@@H](Cc2ccccc2)NC(=O)[C@H](C(C)O)N(C)C1=O (stereo partly shown) [Compound 1316]		10 to 100	10 to 100	D (D = 100-500 nM)	
CC(O)[C@H]1C(=O)N[C@H](Cc2ccccc2)C(=O)N[C@@H](C)/C=C/c2ccccc2OCCN[C@@H](C2CC2)C(=O)N1C (stereo partly shown) [Compound 1317]		10 to 100	1 to 10	C (C = 10-100 nM)	
CCC(C)[C@@H]1NCCOc2ccccc2/C=C/CNC(=O)[C@@H](Cc2cccs2)NC(=O)[C@H](C(C)O)N(C)C1=O (stereo partly shown) [Compound 1332]		100 to 500	10 to 100	D (D = 100-500 nM)	
CCC(C)[C@@H]1NCCOc2cc(F)ccc2CCCNC(=O)[C@@H](Cc2ccccc2)NC(=O)[C@H](C(C)O)N(C)C1=O (stereo partly shown) [Compound 1343]				C (C = 10-100 nM)	1 to 10
CC1CCc2ccccc2OCCNC(C(C)C)C(=O)N(C)C(C(C)O)C(=O)NC(Cc2c[nH]c3ncccc23)C(=O)N1 (stereo not shown) [Compound 1408]	10 to 50				
CC(O)[C@H]1C(=O)N[C@H](Cc2c[nH]c3ccccc23)C(=O)N[C@H](C)CCc2cc(F)ccc2OCCN[C@@H](C2CC2)C(=O)N1C (stereo partly shown) [Compound 1442]				C (C = 10-100 nM)	
COc1cccc(C[C@H]2NC(=O)[C@H](C(C)O)N(C)C(=O)[C@H](C(C)C)NCCOc3cccc(F)c3CC[C@@H](C)NC2=O)c1 (stereo partly shown) [Compound 1446]				B (B = 1-10 nM)	
CC(C)[C@@H]1NCCOc2cc(F)ccc2CC[C@@H](C)NC(=O)[C@@H](Cc2c[nH]c3ccccc23)NC(=O)[C@H](C(C)O)N(C)C1=O (stereo partly shown) [Compound 1455]				B (B = 1-10 nM)	
CC(C)[C@@H]1NCCOc2cc(F)ccc2CCCNC(=O)[C@@H](Cc2cccc(Cl)c2)NC(=O)[C@H](C(C)O)N(C)C1=O (stereo partly shown) [Compound 1460]				B (B = 1-10 nM)	
CC(C)[C@@H]1NCCOc2cc(F)ccc2CC[C@@H](C)NC(=O)[C@@H](Cc2ccc(F)cc2)NC(=O)[C@H](C(C)O)N(C)C1=O (stereo partly shown) [Compound 1464]				B (B = 1-10 nM)	
